Reference: patent US9549921B2, “Heterocyclic compounds and methods of use thereof for the treatment of hepatitis C” (priority 2014, dated 2017)
Like-named read-outs stand apart in the source and are kept apart here.

What was measured:
HCV replicon genotype 1a = experiment: HCV replicon assay, genotype 1a (cell ELISA for NS3/4A); type: cell-based, hepatitis C virus
Method: (§1) The HCV NS5B inhibitory activity of the present compounds may be tested using assays known in the art. The HCV NS5B polymerase inhibitors described herein have activities in a genotype 1b replicon assay as described in the Examples. The assay is performed by incubating a replicon harboring cell-line in the presence of inhibitor for a set period of time and measuring the effect of the inhibitor on HCV replicon replication either directly by quantifying replicon RNA level, or indirectly by measuring enzymatic activity of a co-encoded reporter enzyme such as luciferase or β-lactamase. By performing a series of such measurements at different inhibitor concentrations, the effective inhibitory concentration of the inhibitor (EC50 or EC90) is determined. See Jan M. Vrolijk et al., A replicons-based bioassay for the measurement of interferons in patients with chronic hepatitis C, 110 J. VIROLOGICAL METHODS 201 (2003). Such assays may also be run in an automated format for high through-put screening. See Paul Zuck et al., A cell-based β-lactamase reporter gene assay for the identification of inhibitors of hepatitis C virus replication, 334 ANALYTICAL BIOCHEMISTRY 344 (2004).
(§2) Measurement of inhibition by compounds was performed using the HCV replicon system. Several different replicons encoding different HCV genotypes or mutations were used. In addition, potency measurements were made using different formats of the replicon assay, including different ways of measurements and different plating formats. See Jan M. Vrolijk et al., A replicons-based bioassay for the measurement of interferons in patients with chronic hepatitis C, 110 J. VIROLOGICAL METHODS 201 (2003); Steven S. Carroll et al., Inhibition of Hepatitis C Virus RNA Replication by 2′-Modified Nucleoside Analogs, 278(14) J. BIOLOGICAL CHEMISTRY 11979 (2003). However, the underlying principles are common to all of these determinations, and are outlined below.
(§3) Stable neomycin phosphotransferase encoding replicons-harboring cell lines were used, so all cell lines were maintained under G418 selection prior to the assay. Potency was deteremined using a cell ELISA assay with an antibody to the replicons encoded NS3/4a protease. See Caterina Trozzi et al., In Vitro Selection and Characterization of Hepatitis C Virus Serine Protease Variants Resistant to an Active-Site Peptide Inhibitor, 77(6) J. Virol. 3669 (2003). To initiate an assay, replicon cells were plated in the presence of a dilution series of test compound in the absence of G418. Typically, the assays were performed in a 96-well plate formate for manual operation, or a 384-well plate format for automated assay. Replicon cells and compound were incubated for 96 hours. At the end of the assay, cells were washed free of media and compound, and the cells were then lysed. RNA was quantified indirectly through detection of replicon-encoded NS3/4A protein levels, through an ELISA-based assay with an antibody specific for NS3/4A. IC50 determinations were calculated as a percentage of a DMSO control by fitting the data to a four-parameter fit function and the data obtained is provided in the table below.
(§4) Data for selected compounds of the present invention was obtained for genotypes 1a and 1b using this method and is provided in the table below: […]

HCV replicon genotype 1b = experiment: HCV replicon assay, genotype 1b (cell ELISA for NS3/4A); type: cell-based, hepatitis C virus
Method: as §1, §2, §3, §4

[1] = read-out: 1a IC50, HCV genotype 1a replicon cells, 96 hours incubation, NS3/4A ELISA readout, % of DMSO control
[2] = read-out: 1b IC50, HCV genotype 1b replicon cells, 96 hours incubation, NS3/4A ELISA readout, % of DMSO control
[3] = Hepatitis C virus, 96 h, read-out: 1a IC50 (nM), HCV genotype 1a replicon cells, 96 hours incubation, NS3/4A ELISA readout, % of DMSO control
[4] = Hepatitis C virus, 96 h, read-out: 1b IC50 (nM), HCV genotype 1b replicon cells, 96 hours incubation, NS3/4A ELISA readout, % of DMSO control

Compound	IC50 (HCV replicon genotype 1a; [1])	IC50 (HCV replicon genotype 1b; [2])	IC50 (HCV replicon genotype 1a; [3])	IC50 (HCV replicon genotype 1b; [4])
CNC(=O)c1c(-c2ccc(F)cc2)oc2cc(N(C)S(C)(=O)=O)c([C@@H]3CCCN(c4nc5ccccc5[nH]4)C3)cc12 (single isomer, unassigned) [Example 46, 5-(1-(1H-benzo[d]imidazol-2-yl)piperidin-3-yl)-2-(4-fluorophenyl)-N-methyl-6-(N-methylmethylsulfonamido)benzofuran-3-carboxamide]	11.9 nM	9.47 nM		
CNC(=O)c1c(-c2ccc(F)cc2)oc2cc(N(C)S(C)(=O)=O)c([C@@H]3CCCN(c4nc5ccccc5o4)C3)cc12 (single isomer, unassigned) [Example 47, 5-(1-(benzo[d]oxazol-2-yl)piperidin-3-yl)-2-(4-fluorophenyl)-N-methyl-6-(N-methylmethylsulfonamido)benzofuran-3-carboxamide]	8.37 nM	5.37 nM		
CNC(=O)c1c(-c2ccc(F)cc2)oc2cc(N(C)S(C)(=O)=O)c([C@@H]3CCCN(c4nc5ccccc5o4)C3)cc12 (single isomer, unassigned) [Example 48, 5-(1-(benzo[d]oxazol-2-yl)piperidin-3-yl)-2-(4-fluorophenyl)-N-methyl-6-(N-methylmethylsulfonamido)benzofuran-3-carboxamide]	40.2 nM	24.8 nM		
CNC(=O)c1c(-c2ccc(F)cc2)oc2cc(N(C)S(C)(=O)=O)c([C@@H]3CCCN(c4nc5c(F)cccc5o4)C3)cc12 (single isomer, unassigned) [Example 49, 5-(1-(4-fluorobenzo[d]oxazol-2-yl)piperidin-3-yl)-2-(4-fluorophenyl)-N-methyl-6-(N-methylmethylsulfonamido)benzofuran-3-carboxamide]	5.76 nM	7.44 nM		
CNC(=O)c1c(-c2ccc(F)cc2)oc2cc(N(C)S(C)(=O)=O)c([C@@H]3CCCN(c4nc5c(F)cccc5o4)C3)cc12 (single isomer, unassigned) [Example 50, 5-(1-(4-fluorobenzo[d]oxazol-2-yl)piperidin-3-yl)-2-(4-fluorophenyl)-N-methyl-6-(N-methylmethylsulfonamido)benzofuran-3-carboxamide]	81.7 nM	20.1 nM		
CNC(=O)c1c(-c2ccc(F)cc2)oc2cc(N(C)S(C)(=O)=O)c([C@@H]3CCCN(c4nc5cc(F)ccc5o4)C3)cc12 (single isomer, unassigned) [Example 52]			32.6 nM	42.6 nM
CNC(=O)c1c(-c2ccc(F)cc2)oc2cc(N(C)S(C)(=O)=O)c([C@@H]3CCCN(c4nc5ncccc5o4)C3)cc12 (single isomer, unassigned) [Example 53, 2-(4-fluorophenyl)-N-methyl-6-(N-methylmethylsulfonamido)-5-(1-(oxazolo[4,5-b]pyridin-2-yl)piperidin-3-yl)benzofuran-3-carboxamide]			14.6 nM	15.7 nM
CNC(=O)c1c(-c2ccc(F)cc2)oc2cc(N(C)S(C)(=O)=O)c([C@@H]3CCCN(c4nc5ncccc5o4)C3)cc12 (single isomer, unassigned) [Example 54, 2-(4-fluorophenyl)-N-methyl-6-(N-methylmethylsulfonamido)-5-(1-(oxazolo[4,5-b]pyridin-2-yl)piperidin-3-yl)benzofuran-3-carboxamide]	7.38 nM	13.9 nM		
CNC(=O)c1c(-c2ccc(F)cc2)oc2cc(N(C)S(C)(=O)=O)c([C@@H]3CCCN(c4nc5c(F)cccc5[nH]4)C3)cc12 (single isomer, unassigned) [Example 55, 5-(1-(4-fluoro-1H-benzo[d]imidazol-2-yl)piperidin-3-yl)-2-(4-fluorophenyl)-N-methyl-6-(N-methylmethylsulfonamido)benzofuran-3-carboxamide]	5.65 nM	3.63 nM		
CNC(=O)c1c(-c2ccc(F)cc2)oc2cc(N(C)S(C)(=O)=O)c([C@@H]3CCCN(c4nc5c(F)cccc5[nH]4)C3)cc12 (single isomer, unassigned) [Example 56, 5-(1-(4-fluoro-1H-benzo[d]imidazol-2-yl)piperidin-3-yl)-2-(4-fluorophenyl)-N-methyl-6-(N-methylmethylsulfonamido)benzofuran-3-carboxamide]	53.7 nM	23.9 nM		
CNC(=O)c1c(-c2ccc(F)cc2)oc2cc(N(C)S(C)(=O)=O)c([C@@H]3CCCN(c4ncc(-c5ccc(F)cc5)o4)C3)cc12 (single isomer, unassigned) [Example 57, 2-(4-fluorophenyl)-5-(1-(5-(4-fluorophenyl)oxazol-2-yl)piperidin-3-yl)-N-methyl-6-(N-methylmethylsulfonamido)benzofuran-3-carboxamide]	19.9 nM			22.2 nM
CNC(=O)c1c(-c2ccc(F)cc2)oc2cc(N(C)S(C)(=O)=O)c([C@@H]3CCCN(c4ncc(-c5ccc(F)cc5)o4)C3)cc12 (single isomer, unassigned) [Example 58, 2-(4-fluorophenyl)-5-(1-(5-(4-fluorophenyl)oxazol-2-yl)piperidin-3-yl)-N-methyl-6-(N-methylmethylsulfonamido)benzofuran-3-carboxamide]	132 nM	36.1 nM		
CNC(=O)c1c(-c2ccc(F)cc2)oc2cc(N(C)S(C)(=O)=O)c([C@@H]3CCCN(C(=O)C4C5COCC54)C3)cc12 (stereo in doubt) [Example 59, 2-(4-fluorophenyl)-N-methyl-6-[methyl(methylsulfonyl)amino]-5-[1-(3-oxabicyclo[3.1.0]hex-6-ylcarbonyl)piperidin-3-yl]-1-benzofuran-3-carboxamide]			308 nM	120 nM
CNC(=O)c1c(-c2ccc(F)cc2)oc2cc(N(C)S(C)(=O)=O)c([C@@H]3CCCN(C(=O)C4CC4c4ccc(F)cc4)C3)cc12 (stereo in doubt) [Example 61, 2-(4-fluorophenyl)-5-(1-{[2-(4-fluorophenyl)cyclopropyl]carbonyl}piperidin-3-yl)-N-methyl-6-[methyl(methylsulfonyl)amino]-1-benzofuran-3-carboxamide]			251 nM	99.5 nM
CNC(=O)c1c(-c2ccc(F)cc2)oc2cc(N(C)S(C)(=O)=O)c([C@@H]3CCCN(C(=O)c4cc5cccnc5[nH]4)C3)cc12 (stereo in doubt) [Example 66, 2-(4-fluorophenyl)-N-methyl-6-[methyl(methylsulfonyl)amino]-5-[1-(1H-pyrrolo[2,3-b]pyridin-2-ylcarbonyl)piperidin-3-yl]-1-benzofuran-3-carboxamide]			92.6 nM	21.2 nM
CNC(=O)c1c(-c2ccc(F)cc2)oc2cc(N(C)S(C)(=O)=O)c([C@@H]3CCCN(C(=O)Cc4ccc(F)cn4)C3)cc12 (stereo in doubt) [Example 70, 2-(4-fluorophenyl)-5-{1-[(5-fluoropyridin-2-yl)acetyl]piperidin-3-yl}-N-methyl-6-[methyl(methylsulfonyl)amino]-1-benzofuran-3-carboxamide]			207 nM	67.9 nM
CNC(=O)c1c(-c2ccc(F)cc2)oc2cc(N(C)S(C)(=O)=O)c(C3CC(c4nc5c(F)cccc5o4)CN(C)C3)cc12 (stereo not drawn) [Example 1, 5-(5-(4-fluorobenzo[d]oxazol-2-yl)-1-methylpiperidin-3-yl)-2-(4-fluorophenyl)-N-methyl-6-(N-methylmethylsulfonamido)benzofuran-3-carboxamide]			56.9 nM	34.3 nM
CNC(=O)c1c(-c2ccc(F)cc2)oc2cc(N(C)S(C)(=O)=O)c([C@@H]3CCCN(S(=O)(=O)c4cc5cccc(F)c5[nH]4)C3)cc12 [Example 2, (S)-5-(1-((7-fluoro-1H-indol-2-yl)sulfonyl)piperidin-3-yl)-2-(4-fluorophenyl)-N-methyl-6-(N-methylmethylsulfonamido)benzofuran-3-carboxamide]			84.1 nM	41 nM
